Data taken from a melting point compilation (Tetko et al.).

Row | Structure (SMILES) | melting point [°C]
1 | O=C1CC2(CCCCC2)Oc2cc(O)ccc21 | 169 to 171
2 | O=c1c(Oc2ccccc2)coc2cc(O)ccc12 | 197 to 199
3 | Cn1cnnc1C1CCNCC1 | 181 to 183
4 | CC(=O)c1c(C)[nH]c(C(=O)C(C)Cl)c1C (centres undefined) | 152 to 154
5 | O=C1CCN(S(=O)(=O)c2cccs2)CC1 | 127 to 129
6 | COc1cc([N+](=O)[O-])ccc1I | 127 to 129
7 | O=C(O)CNC(=O)Nc1ccccc1 | 196 to 198
8 | O=C1Nc2ccccc2S(=O)(=O)N1 | 301 to 303
9 | O=C(O)c1cc([N+](=O)[O-])ccc1Oc1ccccc1 | 167 to 169
10 | Cc1ccccc1-n1nc(C(C)(C)C)cc1N | 112 to 114
11 | CCC1CCc2[nH]c(=O)c(C#N)cc2C1 (centres undefined) | 224 to 226
12 | COc1cc(OC)c([N+](=O)[O-])cc1F | 152 to 154
13 | Cc1ccc(S(=O)(=O)N2CCCC2C(=O)O)cc1 (centres undefined) | 96 to 98
14 | CCN(CC)S(=O)(=O)c1cc(N)ccc1C | 166 to 169
15 | N#Cc1ccc(SCCC(=O)O)cc1 | 86 to 88
16 | Nc1nc2c(s1)CNCC2 | 176 to 178
17 | Nc1cnc(C2CC2)nc1 | 169 to 171
18 | O=C(O)c1occc1-c1ccccc1 | 142 to 144
19 | NS(=O)(=O)c1ccc(N2CCCC2=O)cc1 | 247 to 249
20 | N#Cc1cc(Cl)ccc1S(=O)(=O)Cl | 97 to 99
21 | O=C(O)C1COc2ccc(Br)cc21 (centres undefined) | 114 to 116
22 | Cc1cc(SC#N)cc(C)c1N | 82 to 84
23 | O=C(Nc1ccccc1)C(Cl)c1ccccc1 (centres undefined) | 150 to 152
24 | O=C(O)c1ccccc1S(=O)(=O)C(F)(F)F | 107 to 109
25 | O=Cc1ccc(-c2ccc(C(F)(F)F)cc2)o1 | 106 to 108
26 | CC(C)n1ncc2c(C(=O)O)cc(-c3ccccc3)nc21 | 198 to 200
27 | O=C1C(Br)CCN1c1c(F)cccc1F (centres undefined) | 79 to 81

Row | Structure (SMILES) | melting point [°C]
28 | O=C(O)CCC1Cc2ccccc2NC1=O (centres undefined) | 174 to 176
29 | O=C(O)c1ccc(=O)n(-c2ccccc2F)c1 | 249 to 251
30 | CC(C)c1nnc(N)o1 | 184 to 186
31 | S=C(Nc1ccccc1)N1CCCCC1 | 99 to 101
32 | O=C(O)C=Cc1cn(-c2ccccc2)nc1-c1cccc([N+](=O)[O-])c1 | 248 to 250
33 | O=C(O)C=C1CCOCC1 | 99 to 101
34 | O=C(O)CCNS(=O)(=O)c1cccc([N+](=O)[O-])c1 | 134 to 136
35 | ON=C1CCN(Cc2ccccc2)CC1 | 126 to 128
36 | N#Cc1cc(C2CC2)ccn1 | 60 to 62
37 | O=C1CC2(CCCCC2)C(=O)O1 | 54 to 58
38 | COc1ccc(/C=C/C(=O)O)cc1S(=O)(=O)NC(C)C | 202 to 204
39 | O=C(O)c1cc(S(=O)(=O)N2CCCC2)ccc1Cl | 194 to 196
40 | c1cncc(NCc2ccco2)c1 | 45 to 49
41 | CC(C)S(=O)(=O)c1ccc(F)c(C(=O)O)c1 | 139 to 141
42 | Cc1ccc(C(=O)N(C)c2ccc(O)cc2)cc1 | 115 to 117
43 | CC(=O)NC1(C(N)=NO)CCN(C)CC1 | 202 to 204
44 | O=C(O)CNS(=O)(=O)Cc1ccccc1 | 153 to 155
45 | O=C(O)c1cc(S(=O)(=O)N2CCOCC2)ccc1F | 201 to 203
46 | CNC(=O)NC(=O)C(Cl)c1ccccc1 (centres undefined) | 130 to 132
47 | O=C(O)c1cc(S(=O)(=O)NCCOc2ccccc2)ccc1Cl | 169 to 171
48 | COc1ccc(S(=O)(=O)Cl)c(C)c1C | 84 to 86
49 | Nc1ccc(S(=O)(=O)Nc2ccc(Cl)cc2)cc1 | 180 to 182
50 | Cn1cc2c(cc1=O)CCN2 | 204 to 206
51 | O=C(O)/C=C/c1ccc(OC(F)F)cc1OC(F)F | 106 to 108
52 | O=S(=O)(F)Cc1ccc(Cl)nc1 | 81 to 83
53 | CCC(C(=O)Nc1cccc(C(N)=S)c1)c1ccccc1 (centres undefined) | 148 to 150
54 | O=C(Nc1ccccc1Cl)c1c[nH]c2ccccc12 | 213 to 215

Row | Structure (SMILES) | melting point [°C]
55 | O=C(O)c1cc(-c2ccc(Cl)cc2)nn1-c1ccccc1 | 214 to 216
56 | CC(C)(C)OC(=O)N1CC(CC(=O)O)C1 | 109 to 111
57 | CON(C)S(=O)(=O)c1ccc(C(=O)O)cc1 | 210 to 212
58 | O=c1[nH]c(CCl)nc2c(Br)cc(Br)cc12 | 248 to 252
59 | O=C(O)CCOc1ccc(Cl)cc1[N+](=O)[O-] | 127 to 129
60 | N#Cc1ccc(Cl)cc1NCC1CC1 | 52 to 54
61 | O=C1C(=O)N(Cc2ncon2)c2ccc(Br)cc21 | 197 to 199
62 | O=C(NC1CCCC1)c1cnc(Cl)c(Cl)c1 | 159 to 161
63 | N#Cc1ccc(N2CCCC(Br)C2=O)cc1 (centres undefined) | 124 to 126
64 | Cn1cccc1C=CC(=O)O | 153 to 155
65 | CC(C)(C)Oc1ccc(N)cc1 | 60 to 62
66 | COc1cc(C=O)c(Br)cc1O | 175 to 177
67 | CC(C)Nc1nnc(S)s1 | 194 to 196
68 | Cc1ccccc1-c1cc(N)on1 | 99 to 101
69 | O=C(O)C1SCCc2ccccc21 (centres undefined) | 130 to 132
70 | CS(=O)c1ccc(N)cc1F (centres undefined) | 109 to 111
71 | O=C1c2ccccc2S(=O)(=O)N1CCl | 145 to 147
72 | Cc1ccc(Oc2ccc(N)cc2)nn1 | 114 to 116
73 | CC(NC(=O)OC(C)(C)C)C(O)Cc1ccccc1 (centres undefined) | 116 to 118
74 | COC(=O)C1CCCN1C(=O)c1ccc([N+](=O)[O-])s1 (centres undefined) | 119 to 121
75 | O=C(c1ccc(CCl)cc1)N1CCCC1 | 198 to 200
76 | Nc1nc(Cl)c(C=O)c(N2CCOCC2)n1 | 173 to 175
77 | Clc1nc(C2CC2)nc2sc3c(c12)CCCC3 | 112 to 114
78 | CS(=O)(=O)c1ccc(C#N)cc1N | 150 to 152
79 | COc1ccccc1C(O)c1ccccn1 (centres undefined) | 57 to 59
80 | c1ccc2c(c1)CN1CCCC1CN2 (centres undefined) | 107 to 109

Further lines, results first:

Row | melting point [°C] | Structure (SMILES)
81 | 88 to 90 | Cc1cc(C)cc(OCCC(=O)O)c1
82 | 234 to 236 | N#Cc1ccc(NC(N)=O)cc1
83 | 159 to 161 | COCCc1ccc2oc(N)nc2c1
84 | 62 to 64 | Nc1cccc(-c2nccs2)c1
85 | 125 to 127 | Nc1cccc(NC(=O)CCn2ccnc2)c1
86 | 116 to 118 | CC(C)(C)OC(=O)NCCc1nc(N)no1
87 | 235 to 237 | COc1ccccc1Nc1nc2sc(C(=O)O)cc2s1
88 | 117 to 119 | Cn1ccnc1Sc1ccc(N)cc1
89 | 65 to 67 | CC(C)(C)OC(=O)N1CCN(c2ncccc2C#N)CC1
90 | 159 to 161 | O=C(O)c1cnoc1C1CC1
91 | 129 to 131 | CCn1cc(C(=O)C(=O)O)cn1
92 | 66 to 68 | O=C(CCCCl)c1cc(F)ccc1O
93 | 139 to 141 | Cc1c(C(=O)NN)oc2ccccc12
94 | 216 to 218 | O=C(NCc1ccccc1)c1ccc(-n2ccnc2S)cc1
95 | 161 to 163 | CCOc1ccc(C(=O)NN)cc1OC
96 | 184 to 186 | Cc1cc(C)n(-c2ccc(C(=O)O)cc2F)n1
97 | 124 to 126 | CNC(=O)c1cc(Oc2cccc(O)c2)ccn1
98 | 64 to 66 | Fc1ccccc1-c1nc(CCl)cs1
99 | 126 to 128 | CC(C)Oc1cc(Br)cc(C(=O)O)c1
100 | 99 to 101 | CCOC(=O)c1nc(Cl)c2ccccc2n1
101 | 284 to 286 | N#CCc1nc2scc(C3CC3)c2c(=O)[nH]1
102 | 142 to 144 | Cc1ccc(Cc2cnc(N)s2)cc1

Row | melting point [°C] | Structure (SMILES)
103 | 124 to 126 | Cc1cc(C(=O)N2CCCC2)ccc1N
104 | 154 to 156 | O=C(O)c1csc(Cc2ccccc2F)n1
105 | 234 to 236 | COc1ccc(-n2cc(O)c(C(=O)O)n2)cc1
106 | 192 to 194 | NC(C(=O)O)c1cccc(C(F)(F)F)c1 (centres undefined)
107 | 167 to 169 | COc1csc(C(=O)O)c1
108 | 285 to 287 | Cn1ncc2c(=O)[nH]c(NN)nc21
109 | 171 to 173 | O=C(O)Cc1ccc(-n2cnnn2)cc1
110 | 212 to 214 | O=C(CCl)NCC1COc2ccccc2O1 (centres undefined)
111 | 75 to 77 | ClCc1csc(COc2ccc(Cl)cc2)n1
112 | 185 to 187 | Cc1ccc(C)n1-c1ccsc1C(=O)O
113 | 126 to 128 | O=C(O)C1CSc2ccccc2O1 (centres undefined)
114 | 113 to 115 | CC1=C(C)C(=O)NC1=O
115 | 127 to 129 | Nc1cc(-c2ccsc2)n[nH]1
116 | 172 to 174 | NC(=O)c1c(F)cc(Br)cc1F
117 | 157 to 159 | Cc1ccc(CNC(=O)C2CCNCC2)cc1
118 | 225 to 227 | Cc1ccccc1C(N)CC(=O)O (centres undefined)
119 | 115 to 117 | COC(=O)c1nonc1N
120 | 91 to 95 | CCNc1ccc(C(=O)OCC)cc1[N+](=O)[O-]
121 | 54 to 56 | COc1cc(CCC(=O)O)cc(OC)c1
122 | 88 to 90 | COC(=O)c1cc(Br)c(N)s1
123 | 73 to 75 | Cc1csc(CC(=O)NN)n1
124 | 73 to 75 | CCc1nc(N)sc1C

Row | melting point [°C] | Structure (SMILES)
125 | 76 to 78 | CCC(C)C(N)C(N)=O (centres undefined)
126 | 209 to 211 | O=C(O)C=Cc1ccc(Cl)nc1
127 | 190 to 192 | Cc1cnc(NC(=O)c2ccc(Br)o2)s1
128 | 232 to 234 | Cn1ncc2c(=O)[nH]c(CCl)nc21
129 | 126 to 128 | CCc1ccc(NC(=O)c2nnc(CCl)s2)cc1
130 | 92 to 94 | NC(=S)Cc1ccccc1F
131 | 173 to 175 | CCNC(=O)c1cccc(NC(=O)CCl)c1
132 | 117 to 119 | NC(=O)NCC1CC1
133 | 73 to 75 | Cc1ccc(NC(=O)CCl)cc1Cl
134 | 156 to 158 | NS(=O)(=O)c1ccc(NC(=O)CCl)cc1
135 | 294 to 296 | Cc1ccc(C(=O)O)cc1NC(=O)Cc1ccncc1
136 | 108 to 110 | COc1ccc(C(C)=CC(=O)O)cc1
137 | 114 to 116 | O=C(CCl)Nc1ccc(Oc2ccc(Br)cc2)nc1
138 | 163 to 165 | Cc1cc(C(=O)O)nc(-c2ccc(Cl)cc2)n1
139 | 111 to 113 | Cc1csc(-c2ccc(N)cc2)n1
140 | 64 to 66 | CN(C)C(=O)CCn1cc(Br)cn1
141 | 73 to 75 | CC(CC(=O)O)C(=O)c1ccc(Cl)cc1 (centres undefined)
142 | 179 to 181 | Cc1cc(=O)oc2cc(OCC(=O)NN)ccc12
143 | 91 to 93 | CCOC(=O)c1ccc2c(c1)nc(CCl)n2CC
144 | 64 to 66 | CCN(CC)Cc1csc(N)n1
